This passage reports IC50 results from patent publication US20160287589A1, “SUBSTITUTED-IMIDAZOPYRIDAZINES” (BAYER PHARMA AKTIENGESELLSCHAFT, priority 2013, published 2016).

Assay [1] has as its target T1, MKNK1 (Homo sapiens, UniProt Q9BUB5, T385D).
T1 construct: GST (N); purchased Carna Biosciences 02-145; host or cells: insect cells (baculovirus expression system)
In words: MKNK1 kinase high ATP assay (TR-FRET-based). The note with it: Table 2b; 2 mM ATP, 15 min preincubation. Format: biochemical. In outline: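 GST-tagged full-length human MKNK1 (aa 1-424, T344D) from insect cells, preincubated with compound 15 min at 22 °C. Reaction 30 min at 22 °C with 2 mM ATP and 0.06 μM biotinylated peptide in HEPES pH 7.5, Mg2+, DTT. Phosphopeptide detected by TR-FRET (665/622 ratio) with anti-pS6 (pSer236) antibody; normalised to no-inhibitor and no-enzyme controls.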

Assay [2] has as its target T1, MKNK1. As to the kind of experiment: MKNK1 kinase assay (MKNK1 TR-FRET assay). The conditions noted are these: Table 1b; 10 μM ATP, 15 min preincubation. Format: biochemical.

T1 sequence (Q9BUB5 1-424 isoform Q9BUB5-2 T344D): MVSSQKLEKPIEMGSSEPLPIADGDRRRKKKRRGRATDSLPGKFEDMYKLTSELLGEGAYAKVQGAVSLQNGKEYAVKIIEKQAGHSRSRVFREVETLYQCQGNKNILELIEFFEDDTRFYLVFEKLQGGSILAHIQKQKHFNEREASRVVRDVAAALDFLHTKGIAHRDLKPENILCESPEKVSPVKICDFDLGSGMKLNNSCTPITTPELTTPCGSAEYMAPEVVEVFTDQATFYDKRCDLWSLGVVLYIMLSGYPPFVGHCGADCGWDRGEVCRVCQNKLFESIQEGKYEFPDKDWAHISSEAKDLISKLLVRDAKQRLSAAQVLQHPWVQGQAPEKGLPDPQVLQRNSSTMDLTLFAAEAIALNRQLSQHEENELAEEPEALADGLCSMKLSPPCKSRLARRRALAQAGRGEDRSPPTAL

`CC1(C)CN(c2cccc3oc(-c4cnc5ccc(OC[C@@H]6CCC(=O)N6)nn45)cc23)CCN1` [II-36, (5S)-5-[({3-[4-(3,3-dimethylpiperazin-1-yl)-1-benzofuran-2-yl]imidazo[1,2-b]pyridazin-6-yl}oxy)methyl]pyrrolidin-2-one]: the IC50 on MKNK1 [1] came to 1 nM; against MKNK1 [2], 2.3 nM.

As for `C[C@@H]1COCCN1c1cccc2oc(-c3cnc4ccc(OC[C@@H](C)N)nn34)cc12` [II-37, (2R)-1-[(3-{4-[(3R)-3-methylmorpholin-4-yl]-1-benzofuran-2-yl}imidazo[1,2-b]pyridazin-6-yl)oxy]propan-2-amine], the 50% inhibitory concentration (IC50) against MKNK1 [1] came out at 69.1 nM; at MKNK1 [2], 43.9 nM.

Turning to `C[C@H]1CNCCN1c1cccc2oc(-c3cnc4ccc(OC[C@@H]5CCC(=O)N5)nn34)cc12` [II-38, (5S)-5-{[(3-{4-[(2S)-2-methylpiperazin-1-yl]-1-benzofuran-2-yl}imidazo[1,2-b]pyridazin-6-yl)oxy]methyl}pyrrolidin-2-one], the IC50 against MKNK1 [1] amounted to 1.4 nM; on MKNK1 [2] it was 4.6 nM.

For the molecule `COc1ccc2ncc(-c3cc4c(N5CCN[C@H](C)C5)cccc4o3)n2n1` [II-39, 6-methoxy-3-{4-[(3R)-3-methylpiperazin-1-yl]-1-benzofuran-2-yl}imidazo[1,2-b]pyridazine], the IC50 came out at 1.1 nM against MKNK1 [1] and 1.6 nM against MKNK1 [2].

As to `C[C@H]1CN(c2cccc3oc(-c4cnc5ccc(O[C@H]6C[C@H](N)C6)nn45)cc23)CCO1` [II-43, trans-3-[(3-{4-[(2S)-2-methylmorpholin-4-yl]-1-benzofuran-2-yl}imidazo[1,2-b]pyridazin-6-yl)oxy]cyclobutanamine], the IC50 was found to be 37.5 nM against MKNK1 [1] and 21.7 nM on MKNK1 [2].

`COc1ccc2ncc(-c3cc4c(N5CCNC[C@H]5C)cccc4o3)n2n1` [II-44, 6-methoxy-3-{4-[(2R)-2-methylpiperazin-1-yl]-1-benzofuran-2-yl}imidazo[1,2-b]pyridazine]: the IC50 came out at 3.8 nM at MKNK1 [1] and 2.9 nM on MKNK1 [2].

`C[C@@H]1CNCCN1c1cccc2oc(-c3cnc4ccc(OCCCS(C)(=O)=O)nn34)cc12` [II-45, 3-{4-[(2R)-2-methylpiperazin-1-yl]-1-benzofuran-2-yl}-6-[3-(methylsulfonyl)pro-poxy]imidazo[1,2-b]pyri-dazine]: the IC50 on MKNK1 [1] worked out at 5.9 nM; at MKNK1 [2], 5.7 nM.

For `CC1(C)CN(c2cccc3oc(-c4cnc5ccc(OC[C@H]6CCC(=O)N6)nn45)cc23)CCN1` [II-46, (5R)-5-[({3-[4-(3,3-dimethylpiperazin-1-yl)-1-benzofuran-2-yl]imidazo[1,2-b]pyridazin-6-yl}oxy)methyl]pyrrolidin-2-one], the values for the IC50 against MKNK1 [1] and against MKNK1 [2] were 0.2 nM and 1.4 nM, respectively.

Take `COC[C@H]1CCCN1c1cccc2oc(-c3cnc4ccc(OC[C@@H]5CNCC(=O)N5)nn34)cc12` [II-47, (6S)-6-{[(3-{4-[(2R)-2-(methoxymethyl)pyrrolidin-1-yl]-1-benzofuran-2-yl}imidazo[1,2-b]pyridazin-6-yl)oxy]methyl}piperazin-2-one]: the IC50 on MKNK1 [1] came out at 0.8 nM; at MKNK1 [2], 4.8 nM.

With `COC[C@H]1CCCN1c1cccc2oc(-c3cnc4ccc(OC[C@H]5CNCC(=O)N5)nn34)cc12` [II-48, (6R)-6-{[(3-{4-[(2R)-2-(methoxymethyl)pyrrolidin-1-yl]-1-benzofuran-2-yl}imidazo[1,2-b]pyridazin-6-yl)oxy]methyl}piperazin-2-one], the IC50 on MKNK1 [1] is 3.9 nM; on MKNK1 [2], 7 nM.

As for `C[C@@H]1COCCN1c1cccc2oc(-c3cnc4ccc(OC[C@H]5CCC(=O)N5)nn34)cc12` [II-49, (5R)-5-{[(3-{4-[(3R)-3-methylmorpholin-4-yl]-1-benzofuran-2-yl}imidazo[1,2-b]pyridazin-6-yl)oxy]methyl}pyrrolidin-2-one], the figures for the IC50 against MKNK1 [1] and at MKNK1 [2] were 11.9 nM and 5.2 nM, respectively.

`C[C@@H]1COCCN1c1cccc2oc(-c3cnc4ccc(O[C@H]5C[C@H](N)C5)nn34)cc12` [II-50, trans-3-[(3-{4-[(3R)-3-methylmorpholin-4-yl]-1-benzofuran-2-yl}imidazo[1,2-b]pyridazin-6-yl)oxy]cyclobutanamine]: the IC50 was found to be 50.6 nM on MKNK1 [1] and 39.1 nM on MKNK1 [2].

`C[C@@H]1COCCN1c1cccc2oc(-c3cnc4ccc(OC[C@@H]5CCC(=O)N5)nn34)cc12` [II-51, (5S)-5-{[(3-{4-[(3R)-3-methylmorpholin-4-yl]-1-benzofuran-2-yl}imidazo[1,2-b]pyridazin-6-yl)oxy]methyl}pyrrolidin-2-one]: the values for the IC50 against MKNK1 [1] and against MKNK1 [2] were 50.8 nM and 2.8 nM, respectively.

With `C[C@H]1CN(c2cccc3oc(-c4cnc5ccc(OC[C@H]6CCC(=O)N6)nn45)cc23)CCN1` [II-53, (5R)-5-{[(3-{4-[(3S)-3-methylpiperazin-1-yl]-1-benzofuran-2-yl}imidazo[1,2-b]pyridazin-6-yl)oxy]methyl}pyrrolidin-2-one], the IC50 against MKNK1 [1] and at MKNK1 [2] was 1.1 nM throughout.

Consider `CC1(C)CN(c2cccc3oc(-c4cnc5ccc(OCC(F)(F)F)nn45)cc23)CCN1` [II-54, 3-[4-(3,3-dimethylpiperazin-1-yl)-1-benzofuran-2-yl]-6-(2,2,2-trifluoroethoxy)im-idazo[1,2-b]pyridazine], for which the IC50 against MKNK1 [1] stood at 2.4 nM; at MKNK1 [2] it was 2.3 nM.

With `CC1(C)CN(c2cccc3oc(-c4cnc5ccc(OCCCS(C)(=O)=O)nn45)cc23)CCN1` [II-55, 3-[4-(3,3-dimethylpiperazin-1-yl)-1-benzofuran-2-yl]-6-[3-(methylsulfonyl)propoxy]im-idazo[l,2-b]pyridazine], the figures for the IC50 against MKNK1 [1] and against MKNK1 [2] were 1.4 nM and 3.5 nM, respectively.

As for `FC(F)(F)COc1ccc2ncc(-c3cc4c(N5CCNCC5)cccc4o3)n2n1` [II-56, 3-[4-(piperazin-1-yl)-1-benzofuran-2-yl]-6-(2,2,2-trifluoroethoxy)im-idazo[1,2-b]pyridazine], the IC50 came out at 3.1 nM at MKNK1 [1] and 5.4 nM on MKNK1 [2].

On to `C[C@H](N)COc1ccc2ncc(-c3cc4c(N5CCOC[C@H]5C)cccc4o3)n2n1` [II-57, (2S)-1-[(3-{4-[(3R)-3-methylmorpholin-4-yl]-1-benzofuran-2-yl}imidazo[1,2-b]pyridazin-6-yl)oxy]propan-2-amine], for which the IC50 was 75.1 nM at MKNK1 [1] and 53.7 nM against MKNK1 [2].

In the case of `C[C@H]1CNCCN1c1cccc2oc(-c3cnc4ccc(OCCCS(C)(=O)=O)nn34)cc12` [II-58, 3-{4-[(2S)-2-methylpiperazin-1-yl]-1-benzofuran-2-yl}-6-[3-(methylsulfonyl)propoxy]im-idazo[1,2-b]pyridazine], the IC50 against MKNK1 [1] is 1.4 nM; against MKNK1 [2], 2.6 nM.

Regarding `C[C@@H]1CN(c2cccc3oc(-c4cnc5ccc(OCC(F)(F)F)nn45)cc23)CCN1` [II-59, 3-{4-[(3R)-3-methylpiperazin-1-yl]-1-benzofuran-2-yl}-6-(2,2,2-trifluoroethoxy)im-idazo[1,2-b]pyridazine], the IC50 on MKNK1 [1] turned out to be 2 nM; against MKNK1 [2] it was 6.4 nM.

As to `C[C@H](N)COc1ccc2ncc(-c3cc4c(N5CCOC(C)(C)C5)cccc4o3)n2n1` [II-61, (2S)-1-({3-[4-(2,2-dimethylmorpholin-4-yl)-1-benzofuran-2-yl]imidazo[1,2-b]pyridazin-6-yl}oxy)propan-2-amine], the figures for the IC50 at MKNK1 [1] and on MKNK1 [2] were 66.2 nM and 23.6 nM, respectively.

`CC1(C)CN(c2cccc3oc(-c4cnc5ccc(OC[C@@H]6CCC(=O)N6)nn45)cc23)CCO1` [II-63, (5S)-5-[({3-[4-(2,2-dimethylmorpholin-4-yl)-1-benzofuran-2-yl]imidazo[1,2-b]pyridazin-6-yl}oxy)methyl]pyrrolidin-2-one]: the results for the IC50 on MKNK1 [1] and against MKNK1 [2] were 39.5 nM and 15.2 nM, respectively.

For `C[C@@H]1CNCCN1c1cccc2oc(-c3cnc4ccc(OC[C@H]5CCC(=O)N5)nn34)cc12` [II-65, (5R)-5-{[(3-{4-[(2R)-2-methylpiperazin-1-yl]-1-benzofuran-2-yl}imidazo[1,2-b]pyridazin-6-yl)oxy]methyl}pyrrolidin-2-one], the IC50 on MKNK1 [1] turned out to be 1.3 nM; at MKNK1 [2] it was 0.9 nM.

With `C[C@H](N)COc1ccc2ncc(-c3cc4c(N5CCO[C@@H](C)C5)cccc4o3)n2n1` [II-67, (2S)-1-[(3-{4-[(2S)-2-methylmorpholin-4-yl]-1-benzofuran-2-yl}imidazo[1,2-b]pyridazin-6-yl)oxy]propan-2-amine], the IC50 at MKNK1 [1] amounted to 56.3 nM; against MKNK1 [2] it was 23.5 nM.

For `C[C@H]1CN(c2cccc3oc(-c4cnc5ccc(OC[C@@H]6CCC(=O)N6)nn45)cc23)CCO1` [II-68, (5S)-5-{[(3-{4-[(2S)-2-methylmorpholin-4-yl]-1-benzofuran-2-yl}imidazo[1,2-b]pyridazin-6-yl)oxy]methyl}pyrrolidin-2-one], the IC50 against MKNK1 [1] turned out to be 30.4 nM; against MKNK1 [2], 23.2 nM.

Consider `C[C@@H]1CN(c2cccc3oc(-c4cnc5ccc(OC[C@@H](C)N)nn45)cc23)CCO1` [II-69, (2R)-1-[(3-{4-[(2R)-2-methylmorpholin-4-yl]-1-benzofuran-2-yl}imidazo[1,2-b]pyridazin-6-yl)oxy]propan-2-amine], for which the figures for the half-maximal inhibitory concentration (IC50) at MKNK1 [1] and against MKNK1 [2] were 34.8 nM and 29.4 nM, respectively.

`C[C@H](N)COc1ccc2ncc(-c3cc4c(N5CCO[C@H](C)C5)cccc4o3)n2n1` [II-70, (2S)-1-[(3-{4-[(2R)-2-methylmorpholin-4-yl]-1-benzofuran-2-yl}imidazo[1,2-b]pyridazin-6-yl)oxy]propan-2-amine]: the IC50 at MKNK1 [1] stood at 49.2 nM; at MKNK1 [2], 41.4 nM.

As for `C[C@@H]1CN(c2cccc3oc(-c4cnc5ccc(OC[C@H]6CCC(=O)N6)nn45)cc23)CCO1` [II-71, (5R)-5-{[(3-{4-[(2R)-2-methylmorpholin-4-yl]-1-benzofuran-2-yl}imidazo[1,2-b]pyridazin-6-yl)oxy]methyl}pyrrolidin-2-one], the IC50 against MKNK1 [1] was 6.1 nM; against MKNK1 [2], 6.5 nM.
